Results reported in ChEMBL document CHEMBL5329189, “Design, synthesis, and anti-hepatocellular carcinoma of thiopyrimidine/chalcone hybrids as dual STAT3/STAT5 inhibitors” (RSC Med Chem, 2023).
Active and inactive are the calls of the source. The rule behind the calls is not given here.

How the values were obtained:
Huh-7 [1] = experiment: Antitumor activity against human Huh7 cells measured after 48 hrs by MTT assay; format: functional, cell-based; settings: Huh-7, 48 h
HepG2 [2] = experiment: Antitumor activity against human HepG2 cells measured after 48 hrs by MTT assay; format: functional, cell-based; settings: HepG2, 48 h
[3] = Cytotoxicity against THLE-2 cells measured after 48 hrs by MTT assay; format: toxicity, cell-based; settings: human
[4] = Selectivity index, ratio of IC50 for cytotoxicity against THLE-2 cells to IC50 for antitumor activity against human HepG2 cells; format: cell-based; settings: THLE-2 cells versus HepG2 cells, read-out: Ratio IC50
[5] = Selectivity index, ratio of IC50 for cytotoxicity against THLE-2 cells to IC50 for antitumor activity against human Huh-7 cells; format: cell-based; settings: THLE-2 cells versus Huh-7 cells, read-out: Ratio IC50
HepG2 [6] = experiment: Potency index, ratio of doxorubicin IC50 to test compound IC50 for antitumor activity against human HepG2 cells incubated for 48 hrs by MTT assay; format: functional
HepG2 [7] = experiment: Potency index, ratio of stattic IC50 to test compound IC50 for antitumor activity against human HepG2 cells incubated for 48 hrs by MTT assay; format: functional
Huh-7 [8] = experiment: Potency index, ratio of doxorubicin IC50 to test compound IC50 for antitumor activity against human Huh-7 cells incubated for 48 hrs by MTT assay; format: functional
Huh-7 [9] = experiment: Potency index, ratio of static IC50 to test compound IC50 for antitumor activity against human Huh-7 cells incubated for 48 hrs by MTT assay; format: functional
[10] = target: Signal transducer and activator of transcription 3 (Homo sapiens) (UniProt P40763); experiment: Inhibition of STAT3 (unknown origin) using TMB as substrate assessed as reduction in phosphorylated STAT3 at Y705 residue at 10 uM incubated for 5 hrs by ELISA (reference value: 14.53 +/- 0.4 ng/ml)
[11] = target: T1, Signal transducer and activator of transcription 5A (Homo sapiens) (UniProt P42229); experiment: Inhibition of STAT5a (unknown origin) using TMB as substrate assessed as reduction in phosphorylated STAT5a at Y694 residue by measuring fold change at 10 uM incubated for 1.5 hrs by ELISA relative to control
T1 sequence (whole entry): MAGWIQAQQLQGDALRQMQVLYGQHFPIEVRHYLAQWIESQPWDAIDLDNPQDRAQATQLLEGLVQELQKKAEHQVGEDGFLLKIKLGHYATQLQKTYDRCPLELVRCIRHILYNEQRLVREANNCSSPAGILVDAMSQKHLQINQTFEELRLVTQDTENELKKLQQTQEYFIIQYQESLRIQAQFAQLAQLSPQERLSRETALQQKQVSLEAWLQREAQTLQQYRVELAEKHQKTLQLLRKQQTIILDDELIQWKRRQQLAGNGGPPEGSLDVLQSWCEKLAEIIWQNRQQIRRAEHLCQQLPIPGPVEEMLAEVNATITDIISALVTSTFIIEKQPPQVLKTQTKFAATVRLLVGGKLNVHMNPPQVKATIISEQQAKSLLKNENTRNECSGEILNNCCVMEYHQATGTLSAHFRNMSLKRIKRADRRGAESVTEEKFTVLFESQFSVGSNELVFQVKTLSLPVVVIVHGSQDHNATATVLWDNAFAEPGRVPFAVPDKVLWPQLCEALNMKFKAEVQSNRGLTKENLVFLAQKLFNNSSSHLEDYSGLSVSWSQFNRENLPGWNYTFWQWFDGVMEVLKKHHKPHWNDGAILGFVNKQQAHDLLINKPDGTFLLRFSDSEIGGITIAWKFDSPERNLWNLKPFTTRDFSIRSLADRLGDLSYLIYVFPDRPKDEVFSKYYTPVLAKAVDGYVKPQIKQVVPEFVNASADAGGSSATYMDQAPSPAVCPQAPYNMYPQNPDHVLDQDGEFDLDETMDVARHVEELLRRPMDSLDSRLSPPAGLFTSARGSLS

[12] = target: T1, Signal transducer and activator of transcription 5A (Homo sapiens); experiment: Inhibition of STAT5a (unknown origin) using TMB as substrate assessed as reduction in phosphorylated STAT5a at Y694 residue at 10 uM incubated for 1.5 hrs by ELISA (reference value: 11.15 +/- 0.91 ng/ml)
[13] = target: Signal transducer and activator of transcription 3 (Homo sapiens) (UniProt P40763); experiment: Inhibition of STAT3 (unknown origin) using TMB as substrate assessed as reduction in phosphorylated STAT3 at Y705 residue by measuring fold change at 10 uM incubated for 5 hrs by ELISA relative to control
[14] = target: Signal transducer and activator of transcription 3 (Homo sapiens) (UniProt P40763); experiment: Inhibition of STAT3 phosphorylation at Tyr705 residue in human HepG2 cells incubated for 24 hrs by Western blot analysis; format: cell-based
HepG2 [15] = experiment: Inhibition of STAT5 phosphorylation at Tyr694 residue in human HepG2 cells incubated for 24 hrs by Western blot analysis; format: cell-based
HepG2 [16] = experiment: Effect on total STAT3 protein level in human HepG2 cells incubated for 24 hrs by Western blot analysis; format: functional, cell-based
HepG2 [17] = experiment: Effect on total STAT5 protein level in human HepG2 cells incubated for 24 hrs by Western blot analysis; format: functional, cell-based
[18] = target: T2, Signal transducer and activator of transcription 1-alpha/beta (Homo sapiens) (UniProt P42224); experiment: Inhibition of STAT1 in human HepG2 cells assessed as reduction in STAT1 phosphorylation at Tyr701 residue incubated for 24 hrs by Western blot analysis; format: cell-based
T2 sequence (whole entry): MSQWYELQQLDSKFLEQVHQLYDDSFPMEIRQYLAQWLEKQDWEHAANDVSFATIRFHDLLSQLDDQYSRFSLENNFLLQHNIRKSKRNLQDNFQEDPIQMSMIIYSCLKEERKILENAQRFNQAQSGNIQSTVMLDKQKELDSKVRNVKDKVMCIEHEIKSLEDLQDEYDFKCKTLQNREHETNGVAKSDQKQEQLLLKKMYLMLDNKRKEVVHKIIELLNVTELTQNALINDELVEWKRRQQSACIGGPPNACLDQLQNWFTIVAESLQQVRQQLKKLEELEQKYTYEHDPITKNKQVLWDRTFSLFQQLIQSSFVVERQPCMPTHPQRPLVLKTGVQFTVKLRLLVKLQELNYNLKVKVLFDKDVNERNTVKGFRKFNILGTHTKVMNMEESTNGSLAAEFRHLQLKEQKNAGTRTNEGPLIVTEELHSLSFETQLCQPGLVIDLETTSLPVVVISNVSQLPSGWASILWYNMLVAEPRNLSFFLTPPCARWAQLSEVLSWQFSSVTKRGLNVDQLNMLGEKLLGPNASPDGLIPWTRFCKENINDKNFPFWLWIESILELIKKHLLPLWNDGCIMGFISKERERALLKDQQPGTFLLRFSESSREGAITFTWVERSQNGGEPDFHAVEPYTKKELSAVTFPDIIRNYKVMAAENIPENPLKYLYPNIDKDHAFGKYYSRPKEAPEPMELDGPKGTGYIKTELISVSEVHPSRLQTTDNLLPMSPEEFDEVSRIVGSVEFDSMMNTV

[19] = target: Signal transducer and activator of transcription 3 (Homo sapiens) (UniProt P40763); experiment: Inhibition of STAT3 (unknown origin) using TMB as substrate assessed as reduction in phosphorylated STAT3 at Y705 residue incubated for 5 hrs by ELISA (reference value: 14.53 +/- 0.4 ng/ml)
[20] = target: T1, Signal transducer and activator of transcription 5A (Homo sapiens); experiment: Inhibition of STAT5a (unknown origin) using TMB as substrate assessed as reduction in phosphorylated STAT5a at Y694 residue incubated for 1.5 hrs by ELISA (reference value: 11.15 +/- 0.91 ng/ml)

Chain of Signal transducer and activator of transcription 3 (Homo sapiens) (P40763 whole entry): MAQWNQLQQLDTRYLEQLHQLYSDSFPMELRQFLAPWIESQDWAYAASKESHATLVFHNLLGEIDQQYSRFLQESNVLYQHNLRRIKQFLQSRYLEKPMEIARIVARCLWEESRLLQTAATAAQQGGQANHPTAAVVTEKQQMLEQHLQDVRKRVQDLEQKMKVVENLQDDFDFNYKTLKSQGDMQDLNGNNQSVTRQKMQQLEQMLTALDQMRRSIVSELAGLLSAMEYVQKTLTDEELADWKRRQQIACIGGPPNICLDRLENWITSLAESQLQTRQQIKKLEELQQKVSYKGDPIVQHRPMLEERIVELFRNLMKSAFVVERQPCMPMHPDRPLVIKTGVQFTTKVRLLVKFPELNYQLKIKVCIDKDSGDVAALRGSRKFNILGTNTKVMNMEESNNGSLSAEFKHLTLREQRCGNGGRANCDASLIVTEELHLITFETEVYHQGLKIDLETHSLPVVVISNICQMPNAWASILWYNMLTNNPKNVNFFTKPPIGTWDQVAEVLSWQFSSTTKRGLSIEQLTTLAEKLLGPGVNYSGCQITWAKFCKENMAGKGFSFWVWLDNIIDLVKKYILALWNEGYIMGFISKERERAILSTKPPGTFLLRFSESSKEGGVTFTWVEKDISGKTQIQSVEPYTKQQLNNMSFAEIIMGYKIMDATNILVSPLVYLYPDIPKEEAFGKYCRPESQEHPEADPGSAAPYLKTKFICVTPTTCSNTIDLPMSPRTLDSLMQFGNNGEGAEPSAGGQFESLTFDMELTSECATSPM

Q: Which IC50 (Huh-7 [1]) does the source give for `Nc1cc(=O)[nH]c(SCC(=O)Nc2ccc(C(=O)/C=C/c3ccccc3Cl)cc2)n1` here?
A: 2.17 µM

Q: And the IC50 (HepG2 [2])?
A: 3.57 µM

Q: For `COc1ccc(/C=C/C(=O)c2ccc(NC(=O)CSc3nc(N)cc(=O)[nH]3)cc2)cc1`, which IC50 (Huh-7 [1]) is on record?
A: 6.7 µM

Q: What about the IC50 (HepG2 [2]) of the same compound?
A: 8.14 µM

Q: With `COc1cccc2c1C(=O)c1c(O)c3c(c(O)c1C2=O)C[C@@](O)(C(=O)CO)C[C@@H]3O[C@H]1C[C@H](N)[C@H](O)[C@H](C)O1` [DOXORUBICIN] as the compound, how does the IC50 (Huh-7 [1]) read?
A: 5.7 µM

Q: What about the IC50 (HepG2 [2]) of the same compound?
A: 7.34 µM

Q: For `COc1cc(/C=C/C(=O)c2ccc(NC(=O)CSc3nc(N)cc(=O)[nH]3)cc2)cc(OC)c1`, which IC50 (Huh-7 [1]) is on record?
A: 1.58 µM

Q: And the IC50 (HepG2 [2])?
A: 5.08 µM

Q: With `Nc1cc(=O)[nH]c(SCC(=O)Nc2ccc(C(=O)/C=C/c3ccc(F)cc3)cc2)n1` as the compound, how does the IC50 (Huh-7 [1]) read?
A: 25 µM

Q: What about the IC50 (HepG2 [2]) of the same compound?
A: 22.6 µM

Q: Which results are given for `COc1cc(/C=C/C(=O)c2ccc(NC(=O)CSc3nc(N)cc(=O)[nH]3)cc2)cc(OC)c1OC`?
A: IC50 (Huh-7 [1]): 0.55 µM; IC50 (HepG2 [2]): 1.95 µM; IC50 at 48 h [3]: 63.2 µM; selectivity ratio [4]: 32.4; selectivity ratio [5]: 115; Ratio IC50 (HepG2 [6]): 3.7; Ratio IC50 (HepG2 [7]): 4.2; Ratio IC50 (Huh-7 [8]): 10.4; Ratio IC50 (Huh-7 [9]): 14.3; Activity [10]: 3.19 ng/mL; fold change (FC) [11]: 4.8; Activity [12]: 2.28 ng/mL; fold change (FC) [13]: 4.5; inhibition [14]: Active; inhibition (HepG2 [15]): Active; Activity (HepG2 [16]): inactive; Activity (HepG2 [17]): inactive; inhibition [18]: inactive

Q: Which IC50 (Huh-7 [1]) does the source give for `Cc1ccc(/C=C/C(=O)c2ccc(NC(=O)CSc3nc(N)cc(=O)[nH]3)cc2)cc1` here?
A: 2.44 µM

Q: What about the IC50 (HepG2 [2]) of the same compound?
A: 2.58 µM

Q: What about the IC50 at 48 h [3] of the same compound?
A: 49.5 µM

Q: What about the selectivity ratio [4] of the same compound?
A: 19.2

Q: What about the selectivity ratio [5] of the same compound?
A: 20.3

Q: What about the Activity [10] of the same compound?
A: 5.09 ng/mL

Q: What about the fold change (FC) [11] of the same compound?
A: 2.5

Q: And the Activity [12]?
A: 4.44 ng/mL

Q: And the fold change (FC) [13]?
A: 2.8

Q: With `Nc1cc(=O)[nH]c(SCC(=O)Nc2ccc(C(=O)/C=C/c3ccc(Cl)cc3Cl)cc2)n1` as the compound, how does the IC50 (Huh-7 [1]) read?
A: 8.32 µM

Q: And the IC50 (HepG2 [2])?
A: 4.94 µM

Q: Which IC50 (Huh-7 [1]) does the source give for `Nc1cc(=O)[nH]c(SCC(=O)Nc2ccc(C(=O)/C=C/c3ccc(Cl)cc3)cc2)n1` here?
A: 7.27 µM

Q: And the IC50 (HepG2 [2])?
A: 11.2 µM

Q: What does the source list for `O=[N+]([O-])c1ccc2c(c1)S(=O)(=O)C=C2`?
A: IC50 (Huh-7 [1]): 7.89 µM; IC50 (HepG2 [2]): 8.35 µM; IC50 at 48 h [3]: > 100 µM; Activity [19]: 4.9 ng/mL; Activity [20]: 9.43 ng/mL

Q: With `CN(C)c1ccc(/C=C/C(=O)c2ccc(NC(=O)CSc3nc(N)cc(=O)[nH]3)cc2)cc1` as the compound, how does the IC50 (Huh-7 [1]) read?
A: 23.1 µM

Q: What about the IC50 (HepG2 [2]) of the same compound?
A: 31.1 µM
